We go through eleven molecules from article PMC12261321, “Inhibitors of the Bacterioferritin Ferredoxin Complex Dysregulate Iron Homeostasis and Kill and Biofilm-Embedded Cells” (ACS Infectious Diseases, 2025).

Series [1] can be described thus: Determination of compound aqueous solubility in M63 media. Format: physicochemical. Particulars: in M63 media at 35 °C. As to the method:
Determination of Compound Aqueous Solubility. Compound stocks (100 mM in DMSO) were prepared from […]
powder and then further diluted with DMSO to prepare 20 mM working solutions, which were diluted as needed […]
in DMSO. 15 µL o f the DMSO solution was then d iluted to a final volume o f 1.0 mL in M63 media. Six solutions […]
were prepared for each compound, each with a distinct concentration and 1.5% DMSO (v/v). 700 µL of each […]
compound solution was transferred to a polystyrene 48-well plate (VWR), followed by acquisition of UV-vis […]
spectra (300 to 700 nm) with the aid of an Epoch 2 microplate reader (B i o Te k ). […]
Following the acquisition of UV-vis spectra, each of the wells in the plate was inspected under a […]
microscope for evidence of precipitation. Evidence of precipitation at any given concentration was determined by observing a shift in the baseline of the UV-vis spectra relative to the blank (M63 media) and/or evidence of visual precipitation with the aid of a micros cope. […]

Series [2] relates to P. aeruginosa PAO1 biofilm. Kind of series: Pellicle biofilm assay, % survival of biofilm cells. Format: cell-based. Particulars: 24 h. As for the experimental part:
We studied the susceptibility of mature biofilms to treatment with analogues of 4-aminoisoindoline-1,3-dione using biofilms cultured at the […] interface (pellicles) using methodology reported previously. To determine the susceptibility of pellicle biofilms to inhibitors of the Pa Bfr–Bfd complex, we cultured 27 h old biofilms in PI media supplemented with 20 μM Fe, as presented in Experimental Methods. The mature biofilms were transferred onto glass coverslips by touching the pellicle with the surface of the coverslips. The coverslip-adhered biofilms were then exposed to treatment solution consisting of AB media supplemented with 20 μM Fe, 1.5% DMSO, 0.025% HPMC, and 4-aminoisoindoline-1,3-dione derivative or commercial antibiotic for 24 h. The biofilms were then harvested and washed, and the cells were dispersed into sterile PBS by vortexing in the presence of zirconia beads prior to plating and enumerating viable cells (CFU/mL) to calculate % cell survival.
Biofilm Assays. Pellicle biofilms formed by EYF P-expressing P. aeruginosa PAO1 wer e carried ou t as repo rted previously,13 with some modifications. Starter cultures were diluted to OD600 = 0.001 in 4 mL PI media supplement ed with 20 µM Fe , trans ferred to petri dishes (35 x 10 mm) and incubated statically for 27 h at 30 °C.
The pellicles were transferred onto circular microscope glass coverslips (12 mm diameter) by gently allowing the surface of a coverslip to contact the pellicle. Th e biofilm- attached coverslip was washed (3 x) by floating it on top of PBS with the biofilm exposed to the liquid and then placed on top of 1.5 mL AB challenge media in a well of a 12-well microplate, with the biofilm exposed to the media at 30 °C for 24 h. AB challenge media is AB minimal media supplemented with 1.5% DMSO, 0.025% HPMC, 20 μ M Fe, and 4-aminoisoindoline-1,3- dione […]
The 4-aminoisoindoline-1,3- dione derivative solutions were prep ared from powder as 10 mM st ock solutions in DMSO and then diluted in AB challenge media to the appropriate concentrations. Following the 24 h challenge, planktonic and loosely attached cells were washed 3 times by floating the coverslip-attached biofilms with the biofilm facing down into a petri d ish (60 x 15 mm) containing 15 mL PBS, and incubating for 5 min. The biofilm was removed from the coversli p and the cells releas ed f rom the extra cel lular matrix by placing th e cov erslip-attach ed biofi lm in a 50 mL conical tub e containing a 2-mL sup ension of zirconia beads (0.1 mm diam eter, BiosSpec Produ cts), 10 mL PBS, 1 mM MgSO4, 20 µg/mL alginate lyase and 40 µg/mL DNAse. The mixture was incubated for three min at room temperature, and then vigorously vortexed for four min. Following sedimentation of the zirconia beads, a 100 μ L aliquot was utilized for serial dilution in PBS and plating on PIA plates for viable cell enumeration (CFU/mL). […]

The next series concerns A. baumannii 5075. As to the kind of experiment: MIC, broth microdilution in M63 media. Format: cell-based. As to the method: (§1) Measurement of Minimum Inhibitory Concentrations (MIC). The MIC of compounds and select ed antibiotics against three strains of A. baumannii (5075, ATCC 17988, and ATCC 19606) were determined via the broth microdilution method according to Clinical and Laboratory Standard Instit ute (CLSI) guidelines,15 but culturing […]
(§2) To establish a 2-fold dilution series of compound, 985 μ L of diluted cells was mixed with 15 μ L of compound […]
(§3) dissolved in DMSO, such that the resultant solution had the highest concentration of compound or antibiotic tested and 1.5% DMSO. To carry out the serial dilution from the highest compound concentration, a 150 μ L solution of higher concentration compound or antibiotic was mixed with 150 μ L of cell suspension containing 1.5% DMSO in the wells of a 96 well plate.
(§4) Th e 96 well plate was in cubated for 20 hat 35 °C with continuous orbital shaking (205 cpm) in an Epoch2 microplate reader (BioTek), monitoring the growth by […]
(§5) following the OD600. […]
(§6) FFFFFF = MMMMMMAA iiii ccllccbbiiiicccciilliiMMMMMMAA+ MMMMMMBB iiii ccllccbbiiiicccciilliiMMMMMMBB S2 Time Kill Assays. Time-kill assays were performed with A. baumannii 507 5 by the broth macro- dilution method in M63- medium containing 1.5% DMSO. An overnight culture was diluted to approximately 5 x10^5 CFU/mL in fresh M63 media. The test solutions were prepared by adding compound (KM-5- 35, or KM-5- 25) dissolved in DMSO to 5 mL of diluted cell suspension to yield a solution of the desired compound concentration and 1.5% DMSO, or by the addition of antibiotic dissolved in water and a small volume of DMSO to produce the desired

A further series relates to A. baumannii ATCC 17978. As to the kind of experiment: MIC, broth microdilution in M63 media. Format: cell-based. As to the method:
as §1, §2, §3, §4, §5, §6

A further series deals with A. baumannii ATCC 19606. As to the kind of experiment: MIC, broth microdilution in M63 media. Format: cell-based. As for the experimental part:
as §1, §2, §3, §4, §5, §6

[3] abbreviates: M63 media with 1.5% DMSO, 35 °C, aqueous buffer, kinetic from dmso stock.
Setting [4] is: biofilm challenged with 50 µM compound.
Where [5] appears, read: Acinetobacter baumannii, 5075, 20 h.
[6] abbreviates: Acinetobacter baumannii, ATCC17978, 20 h.
[7] abbreviates: Acinetobacter baumannii, ATCC19606, 20 h.
[8] abbreviates: biofilm challenged with 30 µM compound.
Where [9] appears, read: biofilm challenged with 20 µM compound.

Converted amounts (≈) assume the structure as drawn. Some results are limits rather than exact numbers.

`O=C1NC(=O)c2c(NCc3ccccc3O)cccc21` [Analog 11, 4-((2-Hydroxybenzyl)amino)isoindoline-1,3-dione]: the solubility at 4 h in series [1] (setting [3]) came out at 200 µM (≈ 53.7 µg/mL). Moreover, in series [2] (setting [4]), the “% Survival Biofilm, P. aeruginosa PAO1” value is on record as 87 ± 6%. Moreover, the MIC against A. baumannii 5075 (setting [5]) was 80 µM (≈ 21.5 µg/mL); with A. baumannii ATCC 17978 (setting [6]) it was 120 µM (≈ 32.2 µg/mL); with A. baumannii ATCC 19606 (setting [7]) it was 80 µM (≈ 21.5 µg/mL).

`O=C1NC(=O)c2c(NCc3cc(Cl)cc(O)c3O)cccc21` [SB-16-168]: the solubility at 4 h in series [1] (setting [3]) came out at 40 µM (≈ 12.7 µg/mL). In addition, the “% Survival Biofilm, P. aeruginosa PAO1” value in series [2] (setting [4]) is “Not active”. Moreover, the MIC is 40 µM (≈ 12.7 µg/mL) against A. baumannii 5075 (setting [5]), > 40 µM against A. baumannii ATCC 17978 (setting [6]) and > 40 µM against A. baumannii ATCC 19606 (setting [7]).

In series [1], `Cc1cc(Br)cc(CNc2cccc3c2C(=O)NC3=O)c1O` [SB-16-106] had a solubility at 4 h of 30 µM (≈ 10.8 µg/mL). For the same molecule, in series [2] (setting [8]), the “% Survival Biofilm, P. aeruginosa PAO1” value was 42 ± 9%. Besides, the results for the minimal inhibitory concentration (MIC) against A. baumannii 5075 (20 h), in the series with A. baumannii ATCC 17978 (20 h) and against A. baumannii ATCC 19606 (20 h) were 20 µM (≈ 7.22 µg/mL), 15 µM (≈ 5.42 µg/mL) and 30 µM (≈ 10.8 µg/mL), respectively.

In turn, `O=C1NC(=O)c2c(NCc3cc(Br)c(O)cc3O)cccc21` [SB-16-137] showed a solubility at 4 h in series [1] of 80 µM (≈ 29.1 µg/mL). For the same molecule, the “% Survival Biofilm, P. aeruginosa PAO1” value in series [2] (setting [4]) is given as 78 ± 21%. Moreover, the MIC against A. baumannii 5075 (20 h), with A. baumannii ATCC 17978 (20 h) and in the series with A. baumannii ATCC 19606 (20 h) was > 80 µM each time.

On to `O=C1NC(=O)c2c(NCc3cccc(F)c3O)cccc21` [EB-5-80], for which, in series [1], the solubility at 4 h came to 100 µM (≈ 28.6 µg/mL). For the same molecule, the “% Survival Biofilm, P. aeruginosa PAO1” value in series [2] (setting [4]) was 106 ± 23%. The MIC in the series with A. baumannii 5075 (20 h), against A. baumannii ATCC 17978 (20 h) and with A. baumannii ATCC 19606 (20 h) was > 100 µM throughout.

Molecule `Cc1cc(CNc2cccc3c2C(=O)NC3=O)c(O)cc1Br` [SB-16-183] returned a solubility at 4 h in series [1] of 20 µM (≈ 7.22 µg/mL). Moreover, in series [2] (setting [9]), the “% Survival Biofilm, P. aeruginosa PAO1” value was 43 ± 3%. Further, the figures for the minimum inhibitory concentration (MIC) in the series on A. baumannii 5075 (20 h), with A. baumannii ATCC 17978 (20 h) and with A. baumannii ATCC 19606 (20 h) were 20 µM (≈ 7.22 µg/mL), 20 µM (≈ 7.22 µg/mL) and > 20 µM, respectively.

`CC(C)(C)c1ccc(O)c(CNc2cccc3c2C(=O)NC3=O)c1` [SB-16-53]: the solubility at 4 h in series [1] (setting [3]) is 30 µM (≈ 9.73 µg/mL). In addition, the “% Survival Biofilm, P. aeruginosa PAO1” value in series [2] (setting [8]) was determined as 48 ± 10%. Further, the MIC with A. baumannii 5075 (setting [5]), in the series on A. baumannii ATCC 17978 (setting [6]) and with A. baumannii ATCC 19606 (setting [7]) was 30 µM (≈ 9.73 µg/mL) each time.

With `O=C1NC(=O)c2c(NCc3cc(Br)cc(O)c3O)ccc(Br)c21` [SB-16-250], the solubility at 4 h in series [1] is 20 µM (≈ 8.84 µg/mL). For the same molecule, the “% Survival Biofilm, P. aeruginosa PAO1” value in series [2] (setting [9]) was “Not active”. The MIC in the series with A. baumannii 5075 (20 h), with A. baumannii ATCC 17978 (20 h) and in the series on A. baumannii ATCC 19606 (20 h) was > 20 µM each time.

In series [1], `O=C1NC(=O)c2c(NCc3cccc(Cl)c3O)cccc21` [KM-5-30] gave a solubility at 4 h of 80 µM (≈ 24.2 µg/mL). Besides, the “% Survival Biofilm, P. aeruginosa PAO1” value in series [2] (setting [4]) was found to be 72 ± 11%. Also, the MIC with A. baumannii 5075 (20 h), with A. baumannii ATCC 17978 (20 h) and in the series with A. baumannii ATCC 19606 (20 h) was > 80 µM throughout.

As for `O=C1NC(=O)c2c(NCc3cc(Br)cc(O)c3O)cccc21` [SB-16-136], the solubility at 4 h in series [1] was 60 µM (≈ 21.8 µg/mL). Moreover, in series [2] (setting [4]), the “% Survival Biofilm, P. aeruginosa PAO1” value was found to be 63 ± 2%. The MIC with A. baumannii 5075 (20 h) stood at 40 µM (≈ 14.5 µg/mL); against A. baumannii ATCC 17978 (20 h), 30 µM (≈ 10.9 µg/mL); in the series with A. baumannii ATCC 19606 (20 h), 30 µM (≈ 10.9 µg/mL).

In the case of `Cc1ccc(CNc2cccc3c2C(=O)NC3=O)c(O)c1` [EB-5-69], in series [1], the solubility at 4 h stood at 80 µM (≈ 22.6 µg/mL). In addition, in series [2] (setting [4]), the “% Survival Biofilm, P. aeruginosa PAO1” value was 64 ± 1%. Also, the MIC against A. baumannii 5075 (20 h), against A. baumannii ATCC 17978 (20 h) and in the series with A. baumannii ATCC 19606 (20 h) was 80 µM (≈ 22.6 µg/mL) throughout.
